We go through 6 compounds from PMC2362906, “Effects of new 17α-hydroxylase/C17,20-lyase inhibitors on LNCaP prostate cancer cell growth in vitro and in vivo” (British Journal of Cancer, 1999).

The target in assay [1] is T1, human 17α-hydroxylase/C17,20-lyase (P450c17) expressed in LNCaP-CYP17 cells (Homo sapiens, UniProt P05093).
T1 sequence (P05093 9-508 limits assumed): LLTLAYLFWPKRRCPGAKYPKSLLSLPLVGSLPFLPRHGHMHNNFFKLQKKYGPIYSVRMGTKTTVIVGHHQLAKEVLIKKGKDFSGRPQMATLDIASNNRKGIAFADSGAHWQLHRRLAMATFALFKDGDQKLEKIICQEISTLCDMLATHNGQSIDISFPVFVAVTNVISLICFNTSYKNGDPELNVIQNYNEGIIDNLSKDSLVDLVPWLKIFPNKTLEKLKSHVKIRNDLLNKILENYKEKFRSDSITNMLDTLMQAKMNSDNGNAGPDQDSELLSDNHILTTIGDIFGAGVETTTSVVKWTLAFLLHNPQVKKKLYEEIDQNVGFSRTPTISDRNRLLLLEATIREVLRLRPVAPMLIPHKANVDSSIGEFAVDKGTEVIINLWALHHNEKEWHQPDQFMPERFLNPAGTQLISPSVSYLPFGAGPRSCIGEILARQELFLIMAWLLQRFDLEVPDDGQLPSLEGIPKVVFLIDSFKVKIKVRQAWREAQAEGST
Put plainly: [3H]-acetic acid releasing assay (AARA) with LNCaP-CYP17 cells. The format is cell-based. The conditions noted are these: for IC50: LNCaP-CYP17 cells, 7 μM [21-3H]17-OHP5, 16 h, mean ± s.e.m., three experiments.

In assay [2] the target is human prostatic 5-reductase. On the set-up: method as in Njar et al, 1998. The conditions noted are these: human prostatic microsomes; reported previously; ref Njar et al, 1998; cited from earlier work.
In assay [3] the test system is LNCaP tumour xenografts. Put plainly: LNCaP tumour xenograft growth in male SCID mice. The format is in vivo. The source says: (§1) Prostate cancer is the most common malignancy and the second leading cause of cancer-related deaths among men in the US and the UK (Shibata et al, 1998). […] Steroidal 17-hydroxylase/C17,20 -lyase (P450c17) (EC 1.14.99.0) was selected as the target enzyme for inhibition, as this is a key regulatory enzyme of androgen synthesis. P450c17 catal- yses two sequential reactions in the steroid biosynthetic pathway and converts pregnenolone and progesterone to the C-19 andro- gens, dehydroepiandrosterone and androstenedione respectively. This enzyme has an identical amino acid sequence in testicular and adrenal tissues (Chung et al, 1987). […] In order to evaluate the effectiveness of these inhibitors we developed a multi-step system, which utilized the LNCaP human prostate cancer cell line. LNCaP cells remain the only androgen receptor (AR)-positive prostate cancer cell line, that can be readily grown in tissue culture (Horoszewicz et al, 1983). These cells respond to androgens with increased cell proliferation and elevated expression of prostate specific antigen (PSA) (Berns et al, 1993). LNCaP cells at early passages are not only androgen-responsive, but also androgen- dependent (Pousette et al, 1997). This is similar to the situation in most tumours of prostatic cancer patients, which are initially highly responsive and dependent on androgens. […] Therefore, we employed LNCaP cells as a model for evaluating the effectiveness of our new inhibitors of androgen synthesis. In this study the compounds selected for evaluation were two groups of azolyl steroids. […] Here we report on the application of LNCaP-CYP17-transfected cells for determining the inhibitory potencies of the new compounds against the P450c17 enzyme. […] We designed and evaluated two groups of azolyl steroids: 5-non-competitive inhibitors (5NCIs), VN/63-1, VN/85-1, VN/87-1 and their corresponding 4 derivatives (4NCIs), VN/107-1, VN/108-1 and VN/109-1. The human P450c17 gene was transfected into LNCaP human prostate cancer cells, and the resultant LNCaP- CYP17 cells were utilized to evaluate the inhibitory potency of the new azolyl steroids. […] We further evaluated our inhibitors in male severe combined immuno- deficient mice bearing LNCaP tumour xenografts. […] We also utilized wild-type LNCaP prostatic carcinoma cells for evaluating the direct effects of new azolyl steroids on proliferation of these cells in vitro and in vivo. MATERIALS AND METHODS Materials The human prostate cancer cell line LNCaP was obtained from the American Type Culture Collection (Rockville, MD, USA). RPMI- 1640 medium, trypsin-EDTA (0.25%/0.02%), penicillin/strepto- mycin (P/S), geniticin (G418), and LipofectAMINE were from Gibco-BRL (Grand Island, NY, USA). Fetal bovine serum (FBS) was obtained from Summit Biotechnology Inc. (Fort Collins, CO, USA) and steroid-free FBS was prepared as described previously (Klus et al, 1996). Phenol red free IMEM and trypsin-versine were purchased from Biofluids Inc. (Rockville, MD, USA). Chloroform and acetonitrile were purchased from JT Baker, Inc (Phillipsburg, NJ, USA). Hydroxypropyl cellulose (HPC) was purchased from Sigma Chemical Co. (St Louis, MO, USA). The PSA enzyme- linked immunusorbent assay (ELISA) kit was from DSL Inc. (Webster, TX, USA). Matrigel was generously supplied by Dr Hynda Kleinman (NIH, Bethesda, MD, USA). Inhibitors of androgen synthesis: VN/63-1, VN/85-1, VN/87-1, VN/107-1, VN/108-1 and VN/109-1 were synthesized in our labo- ratory as previously described (Njar et al, 1998). […] Metribolone [17-methyl-3 H]-R1881 ([3 H]-R1881: specific activity 86 Ci mmol-1 ) was purchased from Dupont NEN (Boston, MA, USA).

The subject of assay [4] is LNCaP cells. Put plainly: Testosterone-stimulated wild-type LNCaP cell growth. The format is cell-based, human. Conditions: 0.1 nM testosterone, 9 days; for Effect on testosterone-stimulated cell growth (words): 0.5-5.0 μM compound.
Source text: as §1

In assay [5] the test system is serum testosterone. Put plainly: Serum testosterone (RIA) in SCID mice. In kind it is in vivo, male SCID mice. Conditions: 28 days of treatment, 50 mg kg-1 day-1.
Source text: as §1

For assay [6], the system named is serum DHT. Briefly: Serum DHT (RIA) in SCID mice. In kind it is in vivo, male SCID mice. The conditions noted are these: 28 days of treatment, 50 mg kg-1 day-1.
Source text: as §1

For assay [7], the system named is LNCaP cells. Put plainly: DHT-stimulated wild-type LNCaP cell growth. The format is cell-based, human. The conditions noted are these: 0.03 nM DHT, 9 days; for Effect on DHT-induced cell proliferation: 0.5-5.0 μM compound.
Source text: as §1

The test system of assay [8] is serum PSA. Briefly: Serum PSA (ELISA) in LNCaP tumour-bearing SCID mice. In kind it is in vivo, male SCID mice. Conditions: first experiment, 50 mg kg-1 day-1, 28 days. The source says: Prostate cancer is the most common malignancy and the second leading cause of cancer-related deaths among men in the US and the UK (Shibata et al, 1998). […] Steroidal 17-hydroxylase/C17,20 -lyase (P450c17) (EC 1.14.99.0) was selected as the target enzyme for inhibition, as this is a key regulatory enzyme of androgen synthesis. P450c17 catal- yses two sequential reactions in the steroid biosynthetic pathway and converts pregnenolone and progesterone to the C-19 andro- gens, dehydroepiandrosterone and androstenedione respectively. This enzyme has an identical amino acid sequence in testicular and adrenal tissues (Chung et al, 1987). […] In order to evaluate the effectiveness of these inhibitors we developed a multi-step system, which utilized the LNCaP human prostate cancer cell line. LNCaP cells remain the only androgen receptor (AR)-positive prostate cancer cell line, that can be readily grown in tissue culture (Horoszewicz et al, 1983). These cells respond to androgens with increased cell proliferation and elevated expression of prostate specific antigen (PSA) (Berns et al, 1993). LNCaP cells at early passages are not only androgen-responsive, but also androgen- dependent (Pousette et al, 1997). This is similar to the situation in most tumours of prostatic cancer patients, which are initially highly responsive and dependent on androgens. […] Therefore, we employed LNCaP cells as a model for evaluating the effectiveness of our new inhibitors of androgen synthesis. In this study the compounds selected for evaluation were two groups of azolyl steroids. […] Here we report on the application of LNCaP-CYP17-transfected cells for determining the inhibitory potencies of the new compounds against the P450c17 enzyme. […] We designed and evaluated two groups of azolyl steroids: 5-non-competitive inhibitors (5NCIs), VN/63-1, VN/85-1, VN/87-1 and their corresponding 4 derivatives (4NCIs), VN/107-1, VN/108-1 and VN/109-1. The human P450c17 gene was transfected into LNCaP human prostate cancer cells, and the resultant LNCaP- CYP17 cells were utilized to evaluate the inhibitory potency of the new azolyl steroids. […] We further evaluated our inhibitors in male severe combined immuno- deficient mice bearing LNCaP tumour xenografts. […] We also utilized wild-type LNCaP prostatic carcinoma cells for evaluating the direct effects of new azolyl steroids on proliferation of these cells in vitro and in vivo. MATERIALS AND METHODS Materials The human prostate cancer cell line LNCaP was obtained from the American Type Culture Collection (Rockville, MD, USA). RPMI- 1640 medium, trypsin-EDTA (0.25%/0.02%), penicillin/strepto- mycin (P/S), geniticin (G418), and LipofectAMINE were from Gibco-BRL (Grand Island, NY, USA). Fetal bovine serum (FBS) was obtained from Summit Biotechnology Inc. (Fort Collins, CO, USA) and steroid-free FBS was prepared as described previously (Klus et al, 1996). Phenol red free IMEM and trypsin-versine were purchased from Biofluids Inc. (Rockville, MD, USA). Chloroform and acetonitrile were purchased from JT Baker, Inc (Phillipsburg, NJ, USA). Hydroxypropyl cellulose (HPC) was purchased from Sigma Chemical Co. (St Louis, MO, USA). The PSA enzyme- linked immunusorbent assay (ELISA) kit was from DSL Inc. (Webster, TX, USA). Matrigel was generously supplied by Dr Hynda Kleinman (NIH, Bethesda, MD, USA). […]
In general terms: ELISA stands for enzyme-linked immunosorbent assay.

Setting [9] is: second experiment, 50 mg kg-1 day-1, 28 days.
[10] abbreviates: Table 3, second experiment, control 0.205.
The mark [11] stands for this setting: Table 3, second experiment, control 239.2.
The mark [12] stands for this setting: first experiment, 50 mg kg-1 day-1, 28 days.
The mark [13] stands for this setting: Table 2, first experiment, control 1.043.
Where [14] appears, read: Table 2, first experiment, control 243.8.

Molecules are shown by their SMILES. “Also recorded” adds a separate entry of the source.

For `C[C@]12CC[C@H](O)CC1=CC[C@@H]1[C@@H]2CC[C@]2(C)C(n3cncn3)=CC[C@@H]12` [VN/63-1], the figures for the IC50 in assay [1] and in assay [2] were 47.1 nM and above 5000 nM, respectively. Further, the “Effect on tumour growth (words)” value in assay [3] (setting [9]) was “Neither VN/63-1, VN/107 nor ketoconazole had any appreciable effects”. In addition, the “Concentration that completely inhibited the growth stimulatory effect of testosterone” value in assay [4] was 1.0 µM. The “Serum Testosterone” value in assay [5] (setting [10]) was determined as 0.146 ng/mL. Further, the “Serum DHT” value in assay [6] (setting [11]) is 189.7 pg/mL. Besides, the “Concentration that completely blocked DHT stimulation” value in assay [7] amounted to 1.0 µM.

For `C[C@]12CC[C@H](O)CC1=CC[C@@H]1[C@@H]2CC[C@]2(C)C(n3ccnc3)=CC[C@@H]12` [VN/85-1], the IC50 (in general, the midpoint of a concentration-inhibition curve) was 1.25 ± 0.44 nM in assay [1] and above 5000 nM in assay [2]. Besides, the “Reduction of tumour weights compared to vehicle-treated mice” value in assay [3] (setting [12]) came to 27%. In assay [4], the “Concentration that completely inhibited the growth stimulatory effect of testosterone” value was 1.0 µM. In addition, the “Serum Testosterone” value in assay [5] (setting [13]) came out at 0.141 ng/mL. The “Serum DHT” value in assay [6] (setting [14]) came out at 143.7 pg/mL. In addition, in assay [7], the “Concentration that completely blocked DHT stimulation” value came out at 1.0 µM. In addition, the “Serum PSA levels versus control” value in assay [8] is “significantly lower”.

Consider `C[C@]12CC[C@H](O)CC1=CC[C@@H]1[C@@H]2CC[C@]2(C)C(n3ccnn3)=CC[C@@H]12` [VN/87-1], for which the IC50 in assay [1] is 7.97 nM; in assay [2], above 5000 nM. In assay [3] (first experiment, 50 mg kg-1 day-1, 4 weeks), the “Inhibition of LNCaP tumour growth (tumour volume)” value was 33%. In addition, the “Reduction of tumour weights compared to vehicle-treated mice” value in assay [3] (setting [12]) was found to be 31%. The “Serum Testosterone” value in assay [5] (setting [13]) is 0.343 ng/mL. Further, the “Serum DHT” value in assay [6] (setting [14]) came out at 128.6 pg/mL. For the same compound, the “Serum PSA levels versus control” value in assay [8] was “significantly lower”.

For the compound `C[C@]12CCC(=O)C=C1CC[C@@H]1[C@@H]2CC[C@]2(C)C(n3cncn3)=CC[C@@H]12` [VN/107-1], the values for the IC50 in assay [1] and in assay [2] were 12.4 nM and 152 nM, respectively. For the same compound, the “Effect on tumour growth (words)” value is “no significant effects on tumour growth or tumour weights” in assay [3] (setting [9]) and “Neither VN/63-1, VN/107 nor ketoconazole had any appreciable effects” in assay [3] (second experiment, 50 mg kg-1 day-1, 28 days, listed as VN/107). In addition, in assay [4], the “Effect on testosterone-stimulated cell growth (words)” value is listed as “ineffective against testosterone-stimulated cell growth”. Further, in assay [5] (setting [10]), the “Serum Testosterone” value stood at 0.153 ng/mL. Moreover, in assay [6] (setting [11]), the “Serum DHT” value stood at 180.2 pg/mL. Moreover, the “Effect on DHT-induced cell proliferation” value in assay [7] is reported as “least effective inhibitors of androgen-induced cell pro- liferation”.

As for `C[C@]12CCC(=O)C=C1CC[C@@H]1[C@@H]2CC[C@]2(C)C(n3ccnn3)=CC[C@@H]12` [VN/109-1], the figures for the IC50 in assay [1] and in assay [2] were 5.39 nM and 198 nM, respectively. Further, the “Stimulation of LNCaP tumour growth compared to control mice” value in assay [3] (setting [9]) turned out to be 110%. Further, the “Effect on testosterone-stimulated cell growth (words)” value in assay [4] is given as “moderate inhibitory effect; also recorded: biphasic growth responses”. Further, in assay [6] (setting [11]), the “Serum DHT” value turned out to be 228.4 pg/mL. Besides, the “Effect on DHT-induced cell proliferation” value in assay [7] was “least effective inhibitors of androgen-induced cell pro- liferation”.

In the case of `CC(=O)[C@@]1(O)CC[C@H]2[C@@H]3CC=C4C[C@@H](O)CC[C@]4(C)[C@H]3CC[C@@]21C` [[213 H]17-hydroxypregnenolone, [21-3 H]17-Hydroxypregnenolone, reference compound], the Km (in general, the substrate concentration at which the rate is half of its maximum) in assay [1] (substrate 0.5-20 μM, 16 h, 37C, RADLIG software) came to 0.87 µM.
